Reference: patent US20070117835A1, “Methods and compositions for treating Huntington's disease” (priority 2005, published 2007)
“Also recorded” adds a separate entry of the source.

Key:
[1] = tested on: transgenic Drosophila engineered to express the mutant huntingtin protein in all their neurons; conditions: cited from earlier work
[2] = tested on: wildtype Drosophila fruit flies; assay: Toxicity of dimebon in wild type Drosophila (eclosion number and timing); assay type: in vivo; conditions: FIG. 1
Method: Dimebon was evaluated for toxicity levels in wildtype Drosophila fruit flies. Dimebon was administered daily at doses ranging from 10 μM to 1 mM to explore its toxicity. An untreated control group was also studied in this experiment. The concentrations given were concentrations of dimebon in the food that animals drink/eat ad libitum. The food consisted of cornmeal (61.2 g), dextrose (129.4. g), yeast (32.4 g) and agar (9.3 g) in 1 liter of water. Concentrated compounds were added to melted agar food cooled to just above the point of setting (about 40° C.), mixed and dispensed.
About 500 wild type Drosophila eggs were collected on grape juice plates for 20 hours, washed with distilled water and transferred 100 per vial to grow at 25 degrees C. The adult progeny were scored after eclosing (emerging from the pupal case) beginning 10 days later to assess developmental delay and toxicity. The criteria used for toxicity were the number (%) of animals that eclose and the time of the eclosing. For example, fewer animals may emerge from the pupal case if a drug is toxic or the same number of animals may eclose but more slowly than the untreated control group.
The toxicity test employed five concentrations (10 μM, 30 μM, 100 μM, 300 μM, 1 mM) plus an untreated control and was repeated with five sets of flies. […]

[3] = tested on: transgenic Drosophila engineered to express the mutant huntingtin protein in all their neurons; assay: Inhibition of mutant huntingtin-induced neurodegeneration of photoreceptor neurons (pseudopupil method); assay type: in vivo; conditions: for rescue of photoreceptor neurons compared to untreated controls: FIG. 2; for suppression of photoreceptor neuron degeneration, retest: FIG. 3
Method: Dimebon was administered to one group of transgenic Drosophila engineered to express the mutant huntingtin protein in all their neurons. This was accomplished by cloning a foreign gene into transposable p-element DNA vectors under control of a yeast upstream activator sequence that is activated by the yeast GAL4 transcription factor. These promoter fusions were injected into fly embryos to produce transgenic animals. The foreign gene is silent until crossed to another transgenic strain of flies expressing the GAL4 gene in a tissue specific manner. The Elav>Gal4 which expresses the transgene in all neurons from birth until death was used in the experiments described.
For compound testing, 20-30 Httex1pQ93 virgins were mated to elav>Gal4 males and eggs were collected for about 20 hours at 25° C. and dispensed into vials (expected about 70% lethality from Htt effects). Upon eclosion, at least 80, 0-8 hour old flies were harvested and place on drug-containing food (20 eclosed adults per vial) and scored when 7 days old. Inhibitor-containing food was prepared just before tester flies began to emerge.
The two types of transgenic animals were crossed in order to collect enough closely matched aged controls to study. The crossed aged-matched adults (about 20 per dosing group) were placed on drug-containing food for 7 days. Animals were transferred to fresh food daily to minimize any effects caused by instability of the compounds. Survival was scored daily. The average number of photoreceptors at day zero was determined by scoring 7-10 of the newly eclosed tester siblings within six hours of eclosing. This established the baseline of degeneration at the time of exposure to drug. At day 7, animals were sacrificed and the number of photoreceptor neurons surviving was counted. […] For pseudopupil analysis, flies were decapitated and the heads are mounted in a drop of nail polish on a microscopic slide. The head was then covered with immersion oil and light is projected through the eye of the fly using a Nikon EFD-3/Optiphot-2 compound microscope with a 50× oil objective.

[4] = tested on: transgenic Drosophila engineered to express the mutant huntingtin protein in all their neurons; assay: Climbing assay (motor function) in Drosophila model of Huntington's disease; assay type: in vivo
Method: The motor function of Drosophila obtained as described in the examples above was assessed by exploiting the strong negative geotropism of flies to climb upwards when they are tapped to the bottom of a vial. See, Le Bourg and Lint (1992) Hypergravity and aging in Drosophila melanogaster. 4. […] activity. Gerontology 38, 59-64. Animals were placed in a graduated vessel (e.g., a measuring cylinder). The distance climbed in 10 seconds was measured for each animal over 3 trials with a 5 minute rest period. In a separate experiment using tall thin plastic tubes rather than glass vials, the distance climbed in 30 seconds was also measured. Animals were scored for outcome without knowledge of treatment group. Flies were tested for functional rescue using a behavior assay (climbing assay) where the distance climbed was measured. […] In this assay, climbing was scored blind and each animal was given 3 trials that were then averaged. The climbing of 7 day old animals reared on 0, 10, 100 or 1,000 μM containing food was compared as was the climbing of animals on the day of eclosion. Two trials were performed. In the first, the ability to climb in large glass vials was monitored over 10 seconds. […] The second trial was similar to the first except that animals were tested in tall thin plastic tubes for climbing over 30 seconds. […] The data from the two independent climbing trials are plotted as individual data points in FIGS. 6A and 6B. A higher statistical power (e.g., 0.8) given the observed standard deviations and differences of the means may be achieved by doubling the size of the experiment for the highest concentration and increasing about 10 fold for the lower concentrations.

SMILES	rescue of photoreceptor neurons (historical positive control) [1]	timing of emergence slowed ([2]; 1 mM dose)	toxicity (number of animals that eclose and time of eclosing) ([2]; 10 to 300 μM in the food, below 1 mM, dihydrochloride)	rescue of photoreceptor neurons compared to untreated controls ([3]; 10 μM, 7 days)	suppression of photoreceptor neuron degeneration, retest ([3]; 100 μM vs zero drug controls, dihydrochloride)	rescue of photoreceptor neurons compared to untreated controls ([3]; 100 μM, 7 days on drug-containing food)	rescue of photoreceptor neurons compared to untreated controls ([3]; 1 mM, 7 days)	previously measured optimum concentration for photoreceptor rescue ([3]; concentration in food) [µM]	protection of photoreceptors, dose dependence ([3]; day 7, pseudopupil scoring)	suppression of photoreceptor neuron degeneration, retest ([3]; higher doses (300 or 1,000 μM) vs zero drug controls)	climbing behavior, distance climbed in 10 seconds ([4]; 1 mM (1000 μM), 7 day old animals, glass vials, FIG. 5, dihydrochloride)	raw climbing data, FIG. 6 panel A ([4]; 1 mM vs D7ND (Day 7 no drug), legend says measured over 30 seconds)	climbing behavior, distance climbed in 30 seconds ([4]; 10, 100 or 1,000 μM, 7 day old animals, tall thin plastic tubes)
C[C@@H](N)[C@H]1CC[C@H](C(=O)Nc2ccncc2)CC1 [Y-27632]	strongly rescuing												
Cc1ccc2c(c1)c1c(n2CCc2ccc(C)nc2)CCN(C)C1.Cl.Cl [dimebon, 2,8-dimethyl-5-(2-(6-methyl-3-pyridyl)-ethyl)-2,3,4,5-tetrahydro-1H-pyrido[4,3-b]indole dihydrochloride]		approximately 1 day	generally well tolerated; also recorded: no significant toxicity	lesser but still apparent rescue of neurons	significant improvement; also recorded: significant rescue	statistically significant (p=0.0014) rescue of neurons	still appeared to cause neuronal rescue, but to a lesser extent than the 100 μM or 10 μM dimebon doses	100	protect photoreceptors in a dose-dependant manner	no statistically demonstrable improvement	significant difference between the control and 1000 μM; also recorded: statistically significant improvement in climbing	statistical difference between D7ND and 1 mM	no statistically demonstrable difference between treated and control groups
